Measurements taken from patent publication US5919797A, “Halogenated naphthyl methoxy piperidines for mapping serotonin transporter sites” (Emory University, priority 1997, dated 1999).
Entries after “also recorded” stand apart in the source; their conditions may differ. Structures can show the parent of a compound that is named as a salt. Where two headings read alike, the source gives them in different places.

What was measured:
serotonin transporter [1] = target: T1, serotonin transporter (Rattus norvegicus, UniProt P31652); assay: inhibition of [3H]-citalopram binding to rat cortical homogenates (competitive radioligand binding assay)
T1 construct: from tissue; host or cells: rat cerebral cortex homogenate
Excerpt: Compounds of the invention have activity as specific ligands of the serotonin transporter. In particular, the 1-halonaphthalenyl pharmacophore has high affinity for the serotonin transporter. […] Halogen substituents can be in naturally-occurring or radioisotopic form.
Many compounds have been described in the literature as selective inhibitors of the presynaptic reuptake of serotonin (5-hydroxytryptamine,5-HT). […] A good correlation exists between the capacities of a variety of drugs to inhibit [^3 -H]-citalopram binding and [^3 -H]-5HT uptake in rat cortex, thus allowing this binding test to be used in screening for new 5-HT uptake inhibitors. […]

[2] = system: presynaptic reuptake of serotonin; conditions: humans; depression, obsessive-compulsive and eating disorders, alcoholism, drug addiction; cited from earlier work
serotonergic neurons = assay: biodistribution studies in rats of radiolabelled compound; assay type: in vivo, rat; conditions: 123-I labelled
serotonin transporter [3] = conditions: radiolabeled with carbon-11 and fluorine-18; cited from earlier work
[4] = system: serotonin transporter sites; conditions: carbon-11 labelled, vs previously tested PET serotonin transporter ligands; cited from earlier work
5HT3 receptor = assay: inhibition of [3H] GR65630 binding to serotonergic synaptosomal preparation
Excerpt: 5HT3 receptor activity. It blocked the binding of [3H] GR65630 to […]

[5] = Table 1, rat cortical tissue, read-out: [3H]-Citalopram Binding IC50
[6] = Table 1, rat cortical tissue, read-out: [3H]-Citalopram Binding Ki
[7] = concentration needed to achieve 50% inhibition of citalopram binding (IC50), rat cortical homogenates
[8] = serotonergic synaptosomal preparation

T1 sequence (P31652 whole entry): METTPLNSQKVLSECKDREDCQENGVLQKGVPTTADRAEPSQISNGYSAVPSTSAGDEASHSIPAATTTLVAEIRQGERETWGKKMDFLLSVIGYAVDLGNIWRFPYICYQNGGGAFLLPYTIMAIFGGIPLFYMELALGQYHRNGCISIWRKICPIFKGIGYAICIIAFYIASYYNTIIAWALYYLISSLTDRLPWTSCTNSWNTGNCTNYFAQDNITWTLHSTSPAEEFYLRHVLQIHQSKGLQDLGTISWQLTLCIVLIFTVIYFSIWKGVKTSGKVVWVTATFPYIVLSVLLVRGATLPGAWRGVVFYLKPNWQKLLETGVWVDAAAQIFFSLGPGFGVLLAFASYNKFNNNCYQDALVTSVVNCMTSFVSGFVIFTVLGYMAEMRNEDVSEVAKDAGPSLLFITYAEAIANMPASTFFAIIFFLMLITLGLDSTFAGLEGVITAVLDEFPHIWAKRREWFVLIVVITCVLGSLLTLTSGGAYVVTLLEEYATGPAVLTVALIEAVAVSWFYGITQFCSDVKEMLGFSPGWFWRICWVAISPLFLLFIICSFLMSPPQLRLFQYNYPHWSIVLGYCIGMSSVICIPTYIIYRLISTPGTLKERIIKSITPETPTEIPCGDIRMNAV

| SMILES | IC50 (serotonin transporter [1]; [5]) [nM] | Ki (serotonin transporter [1]; [6]) [nM] | IC50 (serotonin transporter [1]; [7]) [nM] | inhibition of [3H]-citalopram binding / affinity for the serotonin transporter, in words (serotonin transporter [1]; rat cortical tissue) | other results |
| --- | --- | --- | --- | --- | --- |
| Brc1c(COC2CCNCC2)cc(I)c2ccccc12 [Compound 6, 4-[(1-bromo-4-iodo-2-naphthalenyl)methoxy]piperidine hydrochloride] | 24.6 | 16.7 |  |  |  |
| Brc1c(COC2CCNCC2)c(I)cc2ccccc12 [Compound 5, 4-[(1-Bromo-3-iodo-2-naphthalenyl)methoxy]piperidine hydrochloride] | 54.6 | 36.9 |  |  |  |
| COCCCC/C(=N\OCCN)c1ccc(C(F)(F)F)cc1 [fluvoxamine] |  |  |  |  | therapeutic value, in words [2]: considerable therapeutic value |
| Brc1c(COC2CCNCC2)ccc2ccccc12.Cl [Compound 1, 4-[(1-Bromo-2-naphthalenyl)methoxy]piperidine hydrochloride] | 0.02 | 0.014 | 0.015 | most potent inhibitor | potency relative to fluoxetine, inhibition of [3H]-citalopram binding (serotonin transporter [1]; rat cortical tissue, vs fluoxetine (Prozac)): 100 fold |
| Cl.Fc1c(COC2CCNCC2)ccc2ccccc12 [Compound 3, 4-[(1-Fluoro-2-naphthalenyl)methoxy]-piperidine hydrochloride] | 5.74 | 3.37 | 3.37 | inhibitory activity comparable to that of fluoxetine and fluvoxamine |  |
| [123I]c1c(COC2CCNCC2)ccc2ccccc12 [Compound 58] |  |  |  |  | selective accumulation of radioactivity in serotonergic neurons (serotonergic neurons): did not lead to selective accumulation of the radioactivity in serotonergic neurons |
| O=[N+]([O-])c1ccc2nc(N3CCNCC3)ccc2c1 [nitroquipazine] |  |  |  |  | image quality / in vivo affinity and selectivity, in words (serotonin transporter [3]): poor quality images |
| Ic1c(COC2CCNCC2)ccc2ccccc12 [Compound 2, 4[(1-Iodo-2-naphthalenyl)methoxyl]piperidine hydrochloride] |  |  | 4.1 |  | Ki (serotonin transporter [1]): 4.13 nM; IC50 (serotonin transporter [1]; [3H]-Citalopram Binding IC50, Table 1, rat cortical tissue): 5.9 nM |
| Brc1c(COC2CCNCC2)ccc2cc(I)ccc12 [Compound 7, 4-[(1-Bromo-6-iodo-2-naphthalenyl)methoxy]piperidine hydrochloride] | 60 | 58.4 |  |  |  |
| [11CH3]Sc1ccc([C@H]2CN3CCC[C@H]3c3ccccc32)cc1 [Carbon-11 McN-5652Z] |  |  |  |  | accumulation in brain regions rich in serotonergic neurons, in words [4]: greatest accumulation in brain regions rich in serotonergic neurons |
| c1ccc2nc(COC3CCNCC3)ccc2c1 [Compound 70, 4-[(2-quinolenyl)methoxy]piperdine hydrochloride] | > 100 | > 100 |  | devoid of affinity for the serotonin transporter | 5-HT3 antagonism, in words (5HT3 receptor; hydrochloride): high selectivity as an antagonist of 5-HT3 function; also recorded: potent inhibitor; IC50 (5HT3 receptor; [8]): 7.4 nM; Ki (5HT3 receptor; [8]): 3.24 nM |
| Cl.Clc1c(COC2CCNCC2)ccc2ccccc12 [Compound 4, 4-[(1-Chloro-2-naphthalenyl)methoxy]-piperidine hydrochloride] | 2.12 | 1.24 | 1.24 | inhibitory activity comparable to that of fluoxetine and fluvoxamine |  |
